Values of other authors in paper PMC10080691, “Enzyme-Responsive Double-Locked Photodynamic Molecular Beacon for Targeted Photodynamic Anticancer Therapy” (Journal of the American Chemical Society, 2023).

What was measured:
[1] = in DMF; reference standard value; cited from earlier work
From the text: The singlet oxygen generation efficiency of 1 was then studied and compared with that of 8, 14, and ZnPc in all these media using 1,3-diphenylisobenzofuran (DPBF) as the singlet oxygen probe.[67] The absorbance of DPBF’s absorption at 415 nm (in DMF) or 417 nm (in PBS and the buffer) was monitored during light irradiation (λ > 610 nm). Figures S4–S6 show the changes in the absorption spectra of the mixtures in DMF, PBS, and the buffer, respectively, upon irradiation. It can be seen that in all these media while 8 and ZnPc could effectively sensitize the formation of singlet oxygen to induce su ...

[2] = in DMF; reference standard value; cited from earlier work; remark: listed apart in the source
From the text: The electronic absorption and fluorescence spectra of PMB 1 were first recorded in DMF and compared with those of the components 8 and 11, as well as the non-cleavable analogue 14 (Figure S2 and Table 1). […] In ...

[Zn+2].c1ccc2c(c1)-c1nc-2nc2[n-]c(nc3nc([n-]c4nc(n1)-c1ccccc1-4)-c1ccccc1-3)c1ccccc21 [ZnPc, zinc(II) phthalocyanine]
ΦΔ (singlet oxygen quantum yield) of reference [1]: 0.56
ΦF (fluorescence quantum yield) of reference [2]: 0.28
